Experimental data: patent US9365556B2, “3,5-diaminopyrazole kinase inhibitors” (Axikin Pharmaceuticals, Inc., priority 2012, dated 2016)

Assays:
[1] = target: T1, kinase domain protein of RC kinase (Homo sapiens, UniProt Q56UN5); test: Enzymatic assay for kinase inhibitory activity (Crebtide substrate, LANCE read-out); format: biochemical; details: compound at 1 μM
T1 sequence (Q56UN5 1061-1324 limits assumed): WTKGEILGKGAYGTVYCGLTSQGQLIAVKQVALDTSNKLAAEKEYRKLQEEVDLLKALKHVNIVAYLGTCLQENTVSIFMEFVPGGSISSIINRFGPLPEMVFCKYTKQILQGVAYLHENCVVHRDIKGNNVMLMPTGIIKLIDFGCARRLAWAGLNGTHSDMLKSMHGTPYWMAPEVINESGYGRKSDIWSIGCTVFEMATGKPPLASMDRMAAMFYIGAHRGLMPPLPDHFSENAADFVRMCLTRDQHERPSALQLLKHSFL
Outline: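 Compound tested at 1 μM final in HEPES/MgCl2/DTT buffer with 50 nM Crebtide and kinase domain at 1 μM ATP; full-length kinase at 3 μM ATP after 45 min preincubation. Reaction 45 min at room temperature, stopped with EDTA, read by LANCE TR-FRET (665/615 nm). Activity binned as % inhibition at 1 μM.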

inhibition at 1 µM [1] [%] | melting point [°C] | SMILES
5 to 20 | 267 to 270 | COc1ccc(/C=N/c2[nH]nc(Nc3ccccc3Cl)c2C(N)=O)c(O)c1 [Compound B119]
≥ 50 | 288 to 292 | COc1ccc(/C=N/c2[nH]nc(Nc3ccccc3Cl)c2C(N)=O)cc1 [Compound B120]
≥ 50 | 306 to 309 | NC(=O)c1c(Nc2cccnc2)n[nH]c1/N=C/c1ccc(O)cc1 [Compound B121, 5-((4-hydroxybenzylidene)amino)-3-(pyridin-3-ylamino)-1H-pyrazole-4-carboxamide]
20 to 50 | 295 to 298 | COc1ccc(/C=N/c2[nH]nc(Nc3cccc(Cl)c3)c2C(N)=O)cc1 [Compound B122]
